Measurements taken from patent publication US9616101B2, “Differentiation marker and differentiation control of eye cell” (Kyoto Prefectural Public University Corporation, priority 2012, dated 2017).
“Also recorded” adds a separate entry of the source.

How the values were obtained:
Type in all cases: cell-based
GPR49/LGR5 expression [1] = test: GPR49/LGR5 expression in human corneal tissue treated with Hedgehog signal modulators; settings: 100 ng/ml rhShh, 10 μM purmorphamine, 10 μM cyclopamine, 3 days
Source text: (§1) A corneal tissue was embedded with OCT compound (catalog No.: 4583; Sakura Finetek, Tokyo, Japan), and frozen in liquid nitrogen to prepare a frozen corneal tissue section. The frozen block was sliced to 8 μm, applied on a silane-coating slide, and air-dried. For preparing the whole tissue section, a Descemet's membrane containing a corneal endothelial cell was peeled from a corneal tissue, allowed to stand in ice-cooled 100% acetone for 30 seconds, applied on a silane-coating slide, and air-dried. As a cultured corneal endothelial cell, a cell cultured on a LabTek 8-well plastic chamber slide was used. Ice-cooled 100% acetone was added to a corneal tissue and the cultured cell, the resultant was allowed to stand at 4° C. for 15 minutes to fix the cell. After shaking and washing with 0.15% TritonX/PBS-, 1% bovine serum albumin (catalog No.: A4503BSA; Sigma-Aldrich, St. Louis, Mo.) was added, and allowed to stand at room temperature for 30 minutes to perform blocking. A primary antibody was diluted with 1% BSA, and incubated at room temperature for 1 hour. As a primary antibody to be used, anti-rabbit GPR49/LGR5 (catalog No.: GTX71143; 1: 200; GeneTex Inc., San Antonio, Tex.), anti-rabbit Nestin (catalog No.: PRB-570C; 1: 200; COVANCE, Berkeley, Calif.), anti-mouse ABCG2 (catalog No.: NC_236; 1: 2; Kamiya biomedical CO., Seattle, Wash. USA), anti-mouse Ki-67 (catalog No.: 556003; 1: 200 BD Pharmingen™ NJ, USA), anti-rabbit Na^+/K^+ ATPase (catalog No.: A132; 1: 100; Zymed), and anti-rabbit ZO1 (Zymed Laboratries Inc., South San Francisco, Calif.) were used. The resultant was washed with 0.15% Triton/PBS- twice, and PBS- once.
For extracting RNA from a corneal tissue and a cultured cell, RNeasy Mini Kit (catalog No.: 74106; QIAGEN, Valencia, Calif.) was used. Added was 1 μl of OligodT Primer (catalog No.: 18418-020; Invitrogen) per 1 μg of the extracted RNA, and the resultant was incubated at 70° C. for 2 minutes, and immediately ice-cooled. […] The resulting data were analyzed by ABI PRISM (registered trademark) 7000 Sequence Detection System. […]

[2] = test system: cultured human corneal endothelial cell; test: Ki-67 immunostaining and cell morphology of cultured human corneal endothelial cell treated with Hedgehog signal modulators; settings: primary human corneal endothelial cell, 2 μM cyclopamine, 3 days; for Ki-67 expression (cell proliferation) as compared with a control: 100 ng/ml rhShh, 2 μM purmorphamine
Method: (§2) After 3 days, immunostain of GPR49/LGR5 and Ki-67 was performed. In addition, RNA of a corneal endothelial cell incubated under the same conditions was extracted, and the amount of expression of mRNA was measured by real time PCR.

GPR49/LGR5 expression [3] = test: GPR49/LGR5 expression in cultured human corneal endothelial cell treated with Hedgehog signal modulators; settings: primary human corneal endothelial cell; 100 ng/ml rhShh, 2 μM purmorphamine, 2 μM cyclopamine; 3 days
Method: as §2

[4] = test system: human corneal endothelial cell; test: Ki67 immunostaining of human corneal endothelial cells incubated with RSPO1 to 4
Source text: as §1
A secondary antibody was diluted with a mixed solution of 1% BSA and 0.15% TrironX/PBS-, and incubated at room temperature for 30 minutes. As a secondary antibody to be used, Alexa™ Fluor 488-labeled (conjugated) goat anti-rabbit IgG (catalog No.: A11034; 1: 1500; Molecular Probe-Invitrogen) and Alexa™ Fluor 488-labeled (conjugated) goat anti-mouse IgG (catalog No.: A11029; 1: 1500; Molecular Probe-Invitrogen) were used. The secondary antibody was shaken and washed with 0.15% Triton/PBS- twice, and PBS- once, subjected to nuclear staining with propidium iodide (catalog No.: SP29004-41; PI; Nacalai Tesque, Inc. Kyoto, Japan), and embedded while covered with a cover glass.
In order to investigate a relationship between R-sporadin 1 (RSPO1), R-spondin 2 (RSPO2), R-spondin 3 (RSPO3), or R-spondin 4 (RSPO4) and differentiation of a corneal endothelial cell, the relationship was studied using RSPO1. Reagents used are as follows. • RSPO1 R&D systems catalog No.: 4645-RS • RSPO2 R&D systems catalog No.: 3266-RS • RSPO3 R&D systems catalog No.: 3500-RS • RSPO4 R&D systems catalog No.: 4575-RS
Then, for the purpose of investigating the influence of RSPO on cell proliferation, RSPO1 to 4 were incubated into a human corneal endothelial cell under conditions of 37° C. and 5% CO2 for 1 day. Thereafter, Ki-67 being a cell proliferation marker was immunostained.

Molecule | expression of GPR49/LGR5 as compared with a control (immunostaining; same result at the mRNA expression level) (GPR49/LGR5 expression [1]) | Ki-67 expression (cell proliferation) as compared with a control [2] | other results
CC1=C2C[C@H]3[C@@H](CC=C4C[C@@H](O)CC[C@@]43C)[C@@H]2CC[C@]12O[C@@H]1C[C@H](C)CN[C@H]1[C@H]2C [cyclopamine] | clear expression suppression | suppression of cell proliferation; also recorded: not upregulated | cell morphology [2]: abnormality of cell morphology; also recorded: could not maintain a normal hexagonal form
c1ccc2c(Oc3nc(Nc4ccc(N5CCOCC5)cc4)c4ncn(C5CCCCC5)c4n3)cccc2c1 [purmorphamine, N-(4-morpholinophenyl)-2-(1-naphthyloxy)-9-cyclohexyl-9H-purine-6-amine] | remarkable increase (upregulation) | elevated; also recorded: upregulated | 
rhShh: recombinant human Sonic hedgehog, ligand of the Hedgehog pathway binding to Ptch1 | remarkable increase (upregulation) | elevated | cell expressing GPR49/LGR5 (GPR49/LGR5 expression [3]): confirmed; Ki-67 expression (cell proliferation) as compared with a control ([2]; listed as SHH): upregulated
RSPO3: human recombinant R-spondin 3, R&D systems catalog No. 3500-RS (protein, listed as Homo sapiens) MHLRLISWLFIILNFMEYIGSQNASRGRRQRRMHPNVSQGCQGGCATCSDYNGCLSCKPRLFFALERIGMKQIGVCLSSCPSGYYGTRYPDINKCTKCKADCDTCFNKNFCTKCKSGFYLHLGKCLDNCPEGLEANNHTMECVSIVHCEVSEWNPWSPCTKKGKTCGFKRGTETRVREIIQHPSAKGNLCPPTNETRKCTVQRKKCQKGERGKKGRERKRKKPNKGESKEAIPDSKSLESSKEIPEQRENKQQQKKRKVQDKQKSVSVSTVH |  |  | Ki67-positive cell rate as compared with a control ([4]; RSPO3 50 ng/ml, 200 ng/ml (FIG. 13)): slightly increased
RSPO2: human recombinant R-spondin 2, R&D systems catalog No. 3266-RS (protein, listed as Homo sapiens) MQFRLFSFALIILNCMDYSHCQGNRWRRSKRASYVSNPICKGCLSCSKDNGCSRCQQKLFFFLRREGMRQYGECLHSCPSGYYGHRAPDMNRCARCRIENCDSCFSKDFCTKCKVGFYLHRGRCFDECPDGFAPLEETMECVEGCEVGHWSEWGTCSRNNRTCGFKWGLETRTRQIVKKPVKDTILCPTIAESRRCKMTMRHCPGGKRTPKAKEKRNKKKKRKLIERAQEQHSVFLATDRANQ |  |  | Ki67-positive cell rate as compared with a control ([4]; RSPO2 50 ng/ml, 100 ng/ml (FIG. 12)): slightly increased
RSPO4: human recombinant R-spondin 4, R&D systems catalog No. 4575-RS (protein, UniProt Q2I0M5 20-234, looked up) R-spondin-4: LNRRKKQVGTGLGGNCTGCIICSEENGCSTCQQRLFLFIRREGIRQYGKCLHDCPPGYFGIRGQEVNRCKKCGATCESCFSQDFCIRCKRQFYLYKGKCLPTCPPGTLAHQNTRECQGECELGPWGGWSPCTHNGKTCGSAWGLESRVREAGRAGHEEAATCQVLSESRKCPIQRPCPGERSPGQKKGRKDRRPRKDRKLDRRLDVRPRQPGLQP |  |  | Ki67-positive cell rate as compared with a control ([4]; RSPO4 50 ng/ml, 500 ng/ml (FIG. 14)): slightly increased
